IC50 data for three compounds are collected here from PMC6264176, “Cholesterol-Lowering Activity of the Major Polyphenols in Grape Seed” (Molecules, 2011).

pIC50: −log10 of the molar value.

This assay deals with T1, pancreatic cholesterol esterase (Sus scrofa, UniProt A0A286ZKB1).
T1 construct: gene CEL
T1 sequence (A0A286ZKB1 96-682): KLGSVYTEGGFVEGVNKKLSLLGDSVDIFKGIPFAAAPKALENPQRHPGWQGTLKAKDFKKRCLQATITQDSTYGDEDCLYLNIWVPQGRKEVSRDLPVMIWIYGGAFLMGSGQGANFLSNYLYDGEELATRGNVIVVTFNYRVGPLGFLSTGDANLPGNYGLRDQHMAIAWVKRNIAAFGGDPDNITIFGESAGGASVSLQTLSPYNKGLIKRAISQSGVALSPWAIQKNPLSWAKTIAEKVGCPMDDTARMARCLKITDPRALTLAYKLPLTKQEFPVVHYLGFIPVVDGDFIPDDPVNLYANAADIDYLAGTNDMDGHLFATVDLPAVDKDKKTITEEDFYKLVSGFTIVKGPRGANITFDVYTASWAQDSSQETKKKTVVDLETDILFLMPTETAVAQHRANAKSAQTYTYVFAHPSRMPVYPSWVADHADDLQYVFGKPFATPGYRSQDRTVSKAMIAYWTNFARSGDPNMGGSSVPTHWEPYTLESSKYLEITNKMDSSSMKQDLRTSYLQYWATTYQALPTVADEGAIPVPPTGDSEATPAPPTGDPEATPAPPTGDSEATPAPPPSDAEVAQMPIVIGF
Briefly: p-NPB hydrolysis by porcine pancreatic cholesterol esterase, absorbance at […] nm, with taurocholic acid. The class given is biochemical.

For `Oc1cc(O)c2c(c1)OC(c1ccc(O)c(O)c1)C(O)C2` (single isomer, unassigned; (+)) [(+)-Catechin], the pIC50 is < 3.46.

With `Oc1cc(O)c2c(c1)O[C@H](c1ccc(O)c(O)c1)[C@H](O)C2` [(–)-epicatechin], the pIC50 was < 3.46.

As to `O=C(O)c1cc(O)c(O)c(O)c1` [gallic acid], the pIC50 is < 3.23.

Broadly, the pIC50 is the IC50 on a negative log10 scale, so that one unit is a factor of ten. A high value points to a small IC50.
